Laboratory results published in PubChem BioAssay AID1259407 (Chemical Carcinogenesis Research Information System (CCRIS), 2018).
Active and inactive are the calls of the source. The rule behind the calls is not given here.

Tested on: CCRIS mutagenicity, Ames/micronucleus/aberration tests
Assay: CCRIS mutagenicity studies
[1] = Test System: AMES SALMONELLA TYPHIMURIUM, Strain/Indicator: TA98, Metabolic Activation: NONE, Method: STANDARD PLATE
[2] = Test System: AMES SALMONELLA TYPHIMURIUM, Strain/Indicator: TA98, Metabolic Activation: RAT, LIVER, S-9, AROCLOR 1254, Method: STANDARD PLATE
[3] = Test System: AMES SALMONELLA TYPHIMURIUM, Strain/Indicator: TA100, Metabolic Activation: NONE, Method: STANDARD PLATE
[4] = Test System: AMES SALMONELLA TYPHIMURIUM, Strain/Indicator: TA100, Metabolic Activation: RAT, LIVER, S-9, AROCLOR 1254, Method: STANDARD PLATE
[5] = Test System: AMES SALMONELLA TYPHIMURIUM, Strain/Indicator: TA1535, Metabolic Activation: NONE, Method: STANDARD PLATE
[6] = Test System: AMES SALMONELLA TYPHIMURIUM, Strain/Indicator: TA1535, Metabolic Activation: RAT, LIVER, S-9, AROCLOR 1254, Method: STANDARD PLATE
[7] = Test System: AMES SALMONELLA TYPHIMURIUM, Strain/Indicator: TA1537, Metabolic Activation: NONE, Method: STANDARD PLATE
[8] = Test System: AMES SALMONELLA TYPHIMURIUM, Strain/Indicator: TA1537, Metabolic Activation: RAT, LIVER, S-9, AROCLOR 1254, Method: STANDARD PLATE
[9] = Test System: AMES SALMONELLA TYPHIMURIUM, Strain/Indicator: TA98, Metabolic Activation: S-9, Method: STANDARD PLATE
[10] = Test System: AMES SALMONELLA TYPHIMURIUM, Strain/Indicator: TA100, Metabolic Activation: S-9, Method: STANDARD PLATE
[11] = Test System: E. COLI, Strain/Indicator: WP2 (HCR), Metabolic Activation: NONE, Method: STANDARD PLATE
[12] = Test System: E. COLI, Strain/Indicator: WP2 (HCR), Metabolic Activation: S-9, Method: STANDARD PLATE
[13] = Test System: Ames Salmonella typhimurium, Strain/Indicator: TA98, Metabolic Activation: None, Method: Preincubation
[14] = Test System: Ames Salmonella typhimurium, Strain/Indicator: TA100, Metabolic Activation: None, Method: Preincubation
[15] = Test System: Ames Salmonella typhimurium, Strain/Indicator: TA1535, Metabolic Activation: None, Method: Preincubation

Question: With CC(=O)C(Cl)(Cl)Cl as the compound, how does the mutagenic call [1] read?
Answer: Its mutagenic call is “active; positive”.

Question: And the mutagenic call [2]?
Answer: Its mutagenic call is “active; positive”.

Question: And the mutagenic call (Test System: AMES SALMONELLA TYPHIMURIUM, Strain/Indicator: TA100, Metabolic Activation: NONE, Method: FLUCTUATION TEST)?
Answer: The mutagenic call was “active; positive”.

Question: And the mutagenic call [3]?
Answer: Its mutagenic call is “active; positive”.

Question: What about the mutagenic call (Test System: AMES SALMONELLA TYPHIMURIUM, Strain/Indicator: TA100, Metabolic Activation: RAT, LIVER, S-9, AROCLOR 1254, Method: FLUCTUATION TEST) of the same compound?
Answer: The mutagenic call was “inactive; negative”.

Question: And the mutagenic call [4]?
Answer: The mutagenic call was “active; positive”.

Question: What about the mutagenic call [5] of the same compound?
Answer: The mutagenic call was “active; positive”.

Question: And the mutagenic call [6]?
Answer: The mutagenic call was “active; positive”.

Question: And the mutagenic call [7]?
Answer: Its mutagenic call is “inactive; negative”.

Question: And the mutagenic call [8]?
Answer: Its mutagenic call is “inactive; negative”.

Question: What does the source list for C[C@@H]1C[C@@]2(C)[C@@H](CC[C@@H]3[C@@H]2CC[C@]2(C)[C@@H](O)CC[C@@H]32)CC1=O?
Answer: mutagenic call [1]: inactive; negative; mutagenic call [9]: inactive; negative; mutagenic call [3]: inactive; negative; mutagenic call [10]: inactive; negative; mutagenic call [11]: inactive; negative; mutagenic call [12]: inactive; negative

Question: CN(CCCl)c1ccc(/C=C/C2=[N+](C)c3ccccc3C2(C)C)cc1 was tested. Which mutagenic call [13] did it give?
Answer: Its mutagenic call is “inactive; negative”.

Question: And the mutagenic call (Test System: Ames Salmonella typhimurium, Strain/Indicator: TA98, Metabolic Activation: Rat, Liver, S-9, Aroclor 1254, Method: Preincubation)?
Answer: The mutagenic call was “inactive; negative”.

Question: What about the mutagenic call [14] of the same compound?
Answer: The mutagenic call was “inactive; negative”.

Question: What about the mutagenic call (Test System: Ames Salmonella typhimurium, Strain/Indicator: TA100, Metabolic Activation: Rat, Liver, S-9, Aroclor 1254, Method: Preincubation) of the same compound?
Answer: Its mutagenic call is “inactive; negative”.

Question: And the mutagenic call (Test System: Ames Salmonella typhimurium, Strain/Indicator: TA102, Metabolic Activation: None, Method: Preincubation)?
Answer: Its mutagenic call is “inactive; negative”.

Question: What about the mutagenic call (Test System: Ames Salmonella typhimurium, Strain/Indicator: TA102, Metabolic Activation: Rat, Liver, S-9, Aroclor 1254, Method: Preincubation) of the same compound?
Answer: Its mutagenic call is “inactive; negative”.

Question: And the mutagenic call [15]?
Answer: Its mutagenic call is “inactive; negative”.

Question: And the mutagenic call (Test System: Ames Salmonella typhimurium, Strain/Indicator: TA1535, Metabolic Activation: Rat, Liver, S-9, Aroclor 1254, Method: Preincubation)?
Answer: Its mutagenic call is “inactive; negative”.

Question: Which mutagenic call (Test System: UDS HUMAN FIBROBLASTS, Strain/Indicator: THY INCORP (NON-S-PHASE), Metabolic Activation: NONE, Method: AUTORADIOGRAPHY) does the source give for CCCCCCCCCCCCCC(=O)N(OC(C)=O)c1ccc2c(c1)Cc1ccccc1-2 here?
Answer: The mutagenic call was “active; positive”.

Question: What does the source list for CCCCN(N=O)/C(C=O)=N/O?
Answer: mutagenic call [5]: active; positive; mutagenic call (Test System: E. COLI, Strain/Indicator: WP2 (HCR-), Metabolic Activation: NONE, Method: STANDARD PLATE): active; positive

Question: Which mutagenic call [4] does the source give for Cc1ccc2c3c1ccc1cccc(c13)C2 here?
Answer: The mutagenic call was “active; positive”.

Question: With ClC(Cl)C(Cl)Cl as the compound, how does the mutagenic call (End Point: IN VITRO CHROMOSOMAL ABERRATIONS, Test System: CHINESE HAMSTER OVARY CELLS, Metabolic Activation: NONE) read?
Answer: The mutagenic call was “inactive; negative; precipitation occurred at 653 ug/ml”.

Question: And the mutagenic call (End Point: IN VITRO CHROMOSOMAL ABERRATIONS, Test System: CHINESE HAMSTER OVARY CELLS, Metabolic Activation: RAT, LIVER, S-9, AROCLOR 1254)?
Answer: Its mutagenic call is “inactive; negative”.

Question: And the mutagenic call (Test System: AMES SALMONELLA TYPHIMURIUM, Strain/Indicator: TA97, Metabolic Activation: NONE, Method: STANDARD PLATE)?
Answer: The mutagenic call was “active; positive”.

Question: What about the mutagenic call (Test System: AMES SALMONELLA TYPHIMURIUM, Strain/Indicator: TA97, Metabolic Activation: RAT, LIVER, S-9, AROCLOR 1254, Method: STANDARD PLATE) of the same compound?
Answer: The mutagenic call was “active; positive”.

Question: And the mutagenic call [1]?
Answer: The mutagenic call was “active; positive”.

Question: And the mutagenic call [2]?
Answer: The mutagenic call was “active; positive”.

Question: And the mutagenic call [3]?
Answer: The mutagenic call was “active; positive”.

Question: What about the mutagenic call [4] of the same compound?
Answer: Its mutagenic call is “active; positive”.

Question: And the mutagenic call (Test System: AMES SALMONELLA TYPHIMURIUM, Strain/Indicator: TA104, Metabolic Activation: NONE, Method: STANDARD PLATE)?
Answer: The mutagenic call was “inactive; negative”.

Question: And the mutagenic call (Test System: AMES SALMONELLA TYPHIMURIUM, Strain/Indicator: TA104, Metabolic Activation: RAT, LIVER, S-9, AROCLOR 1254, Method: STANDARD PLATE)?
Answer: Its mutagenic call is “active; positive”.

Question: What about the mutagenic call (Test System: AMES SALMONELLA TYPHIMURIUM, Strain/Indicator: TA1530, Metabolic Activation: NONE, Method: SPOT) of the same compound?
Answer: The mutagenic call was “active; positive”.

Question: And the mutagenic call (Test System: AMES SALMONELLA TYPHIMURIUM, Strain/Indicator: TA1535, Metabolic Activation: NONE, Method: SPOT)?
Answer: Its mutagenic call is “active; positive”.

Question: Which mutagenic call [1] does the source give for CC(C)C[C@@H]1NC(=O)CNC1=O here?
Answer: The mutagenic call was “inactive; negative”.

Question: What about the mutagenic call [2] of the same compound?
Answer: Its mutagenic call is “inactive; negative”.

Question: And the mutagenic call [3]?
Answer: Its mutagenic call is “inactive; negative”.

Question: What about the mutagenic call [4] of the same compound?
Answer: Its mutagenic call is “inactive; negative”.

Question: What about the mutagenic call [5] of the same compound?
Answer: The mutagenic call was “inactive; negative”.

Question: What about the mutagenic call [6] of the same compound?
Answer: The mutagenic call was “inactive; negative”.

Question: And the mutagenic call [7]?
Answer: The mutagenic call was “inactive; negative”.

Question: What about the mutagenic call [8] of the same compound?
Answer: Its mutagenic call is “inactive; negative”.

Question: For CS(=O)(=O)OCCCCOS(C)(=O)=O, which mutagenic call [1] is on record?
Answer: Its mutagenic call is “inactive; negative”.

Question: And the mutagenic call [9]?
Answer: The mutagenic call was “inactive; negative”.

Question: And the mutagenic call [3]?
Answer: Its mutagenic call is “inactive; negative”.

Question: And the mutagenic call [10]?
Answer: The mutagenic call was “active; positive”.

Question: What about the mutagenic call (Test System: AMES SALMONELLA TYPHIMURIUM, Strain/Indicator: TA1537, Metabolic Activation: S-9, Method: STANDARD PLATE) of the same compound?
Answer: Its mutagenic call is “inactive; negative”.

Question: And the mutagenic call [11]?
Answer: Its mutagenic call is “inactive; negative”.

Question: And the mutagenic call [12]?
Answer: Its mutagenic call is “active; positive”.

Question: What about the mutagenic call (Test System: MOUSE LYMPHOMA, Strain/Indicator: L5178Y (TK+/TK-), Metabolic Activation: NONE, Method: SUSPENSION/PLATE) of the same compound?
Answer: Its mutagenic call is “active; positive”.

Question: What about the mutagenic call (Test System: MOUSE LYMPHOMA, Strain/Indicator: L5178Y (TK+/TK-), Metabolic Activation: RAT, LIVER, S-9, AROCLOR 1254, Method: SUSPENSION/PLATE) of the same compound?
Answer: The mutagenic call was “active; positive”.

Question: Which results are given for O=[N+]([O-])C1=Cc2cccc3c2c1cc1ccc2ccccc2c13?
Answer: mutagenic call [1]: active; positive; mutagenic call [2]: inactive; negative; mutagenic call [3]: inactive; negative; mutagenic call [4]: active; positive; mutagenic call [5]: inactive; negative; mutagenic call [6]: inactive; negative; mutagenic call [7]: active; positive; mutagenic call [8]: active; positive; mutagenic call (Test System: AMES SALMONELLA TYPHIMURIUM, Strain/Indicator: TA1538, Metabolic Activation: NONE, Method: STANDARD PLATE): active; positive; mutagenic call (Test System: AMES SALMONELLA TYPHIMURIUM, Strain/Indicator: TA1538, Metabolic Activation: RAT, LIVER, S-9, AROCLOR 1254, Method: STANDARD PLATE): active; positive

Question: With CCCCCCCC/C=C\CCCCCCCC(N)=O as the compound, how does the mutagenic call [13] read?
Answer: Its mutagenic call is “inactive; negative. precipitation at 3 highest doses”.

Question: What about the mutagenic call (Test System: Ames Salmonella typhimurium, Strain/Indicator: TA98, Metabolic Activation: Rat, Liver, S9, Phenobarbital and 5,6-benzoflavone, Method: Preincubation) of the same compound?
Answer: Its mutagenic call is “inactive; negative. precipitation at 3 highest doses”.

Question: What about the mutagenic call [14] of the same compound?
Answer: The mutagenic call was “inactive; negative. precipitation at 3 highest doses”.

Question: What about the mutagenic call (Test System: Ames Salmonella typhimurium, Strain/Indicator: TA100, Metabolic Activation: Rat, Liver, S9, Phenobarbital and 5,6-benzoflavone, Method: Preincubation) of the same compound?
Answer: Its mutagenic call is “inactive; negative. precipitation at 3 highest doses”.

Question: What about the mutagenic call [15] of the same compound?
Answer: The mutagenic call was “inactive; negative. precipitation at 3 highest doses”.

Question: And the mutagenic call (Test System: Ames Salmonella typhimurium, Strain/Indicator: TA1535, Metabolic Activation: Rat, Liver, S9, Phenobarbital and 5,6-benzoflavone, Method: Preincubation)?
Answer: Its mutagenic call is “inactive; negative. precipitation at 3 highest doses”.

Question: What about the mutagenic call (Test System: Ames Salmonella typhimurium, Strain/Indicator: TA1537, Metabolic Activation: None, Method: Preincubation) of the same compound?
Answer: Its mutagenic call is “inactive; negative. precipitation at 3 highest doses”.

Question: What about the mutagenic call (Test System: Ames Salmonella typhimurium, Strain/Indicator: TA1537, Metabolic Activation: Rat, Liver, S9, Phenobarbital and 5,6-benzoflavone, Method: Preincubation) of the same compound?
Answer: The mutagenic call was “inactive; negative. precipitation at 3 highest doses”.

Question: What about the mutagenic call (Test System: E. coli, Strain/Indicator: WP2uvrA/pKM101, Metabolic Activation: None, Method: Preincubation) of the same compound?
Answer: The mutagenic call was “inactive; negative. precipitation at 3 highest doses”.

Question: And the mutagenic call (Test System: E. coli, Strain/Indicator: WP2uvrA/pKM101, Metabolic Activation: Rat, Liver, S9, Phenobarbital and 5,6-benzoflavone, Method: Preincubation)?
Answer: Its mutagenic call is “inactive; negative. precipitation at 3 highest doses”.
